Source: patent US20220289794A1, “SYNTHETIC ANTIMICROBIAL PEPTIDES” (priority 2019, published 2022)
Converted amounts (≈) assume the structure as drawn. Like-named read-outs stand apart in the source and are kept apart here. Residues, ends and D or L forms follow the SMILES beside them.

Tests used:
[1] = tested on: Klebsiella pneumoniae (KPC, ATCC BAA-1705); experiment: microbe, parasite or virus in culture; settings: ATCCBAA1705, 24 h, read-out: MIC of antibiotic
[2] = tested on: Escherichia coli (E. Coli, ATCC 25922); experiment: microbe, parasite or virus in culture; settings: ATCC25922, 24 h
[3] = tested on: Escherichia coli (E. Coli, ATCC 25922); settings: Escherichia coli (ATCC 25922), antibiotic alone
[4] = tested on: Pseudomonas aeruginosa (PSA, ATCC 27883); experiment: microbe, parasite or virus in culture; settings: ATCC27883, 24 h
[5] = tested on: Klebsiella pneumoniae (KPC, ATCC BAA-1705); settings: Klebsiella pneumoniae (ATCC BAA-1705), antibiotic alone; for MIC of antibiotics: Table 26
[6] = tested on: Methicillin-resistant Staphylococcus aureus MRSA (ATCC BAA-1556); experiment: microbe, parasite or virus in culture; settings: ATCCBAA1556|MRSA, 24 h
[7] = tested on: Klebsiella pneumoniae (KPC, ATCC BAA-1705); experiment: microbe, parasite or virus in culture; settings: ATCCBAA1705, 24 h
[8] = tested on: Pseudomonas aeruginosa (PSA, ATCC 27883); experiment: Synergy checkerboard assay (FIC index); type: cell-based; settings: Pseudomonas aeruginosa (ATCC 27883), antibiotic alone; for MIC: ATCC27883, 24 h
[9] = tested on: Pseudomonas aeruginosa (ATCC 10145)
[10] = tested on: Pseudomonas aeruginosa (ATCC BAA-1744); settings: Pseudomonas aeruginosa (ATCC BAA-1744)
[11] = tested on: Pseudomonas aeruginosa (PSA, ATCC 27883)
[12] = tested on: Methicillin-resistant Staphylococcus aureus MRSA (ATCC BAA-1556)
[13] = tested on: Acinetobacter baumannii (ATCC BAA-1605); settings: Acinetobacter baumannii (ATCC BAA-1605)
[14] = tested on: Escherichia coli (ATCC BAA-2452); settings: Escherichia coli (ATCC BAA-2452)
[15] = tested on: Escherichia coli (E. Coli, ATCC 25922)
[16] = tested on: Klebsiella pneumoniae ATCC 13883; settings: Klebsiella pneumonia (ATCC 13883)
[17] = tested on: Klebsiella pneumoniae (KPC, ATCC BAA-1705)
[18] = read-out: Escherichia coli (ATCC 25922) MIC, Table 28, IFX-031, antibiotics alone and PHY-MIX (1:1 w/w)
[19] = read-out: Escherichia coli (ATCC 25922) MIC, Table 29, [R6W4] (IFX-318), antibiotics alone and PHY-MIX (1:1 w/w)
[20] = read-out: Escherichia coli (ATCC 25922) MIC, Table 30, [R5W4K] (IFX-315), antibiotics alone and PHY-MIX (1:1 w/w)
[21] = read-out: Escherichia coli (ATCC 25922) MIC, Table 31, [R5W4] (IFX-301), antibiotics alone and PHY-MIX (1:1 w/w)
[22] = read-out: Pseudomonas aeruginosa (ATCC 27883) MIC, Table 28, IFX-031, antibiotics alone and PHY-MIX (1:1 w/w)
[23] = read-out: Pseudomonas aeruginosa (ATCC 27883) MIC, Table 29, [R6W4] (IFX-318), antibiotics alone and PHY-MIX (1:1 w/w)
[24] = read-out: Pseudomonas aeruginosa (ATCC 27883) MIC, Table 30, [R5W4K] (IFX-315), antibiotics alone and PHY-MIX (1:1 w/w)
[25] = read-out: Pseudomonas aeruginosa (ATCC 27883) MIC, Table 31, [R5W4] (IFX-301), antibiotics alone and PHY-MIX (1:1 w/w)
[26] = read-out: Klebsiella pneumoniae (ATCC BAA-1705) MIC, Table 28, IFX-031, antibiotics alone and PHY-MIX (1:1 w/w)
[27] = read-out: Klebsiella pneumoniae (ATCC BAA-1705) MIC, Table 29, [R6W4] (IFX-318), antibiotics alone and PHY-MIX (1:1 w/w)
[28] = read-out: Klebsiella pneumoniae (ATCC BAA-1705) MIC, Table 30, [R5W4K] (IFX-315), antibiotics alone and PHY-MIX (1:1 w/w)
[29] = read-out: Klebsiella pneumoniae (ATCC BAA-1705) MIC, Table 31, [R5W4] (IFX-301), antibiotics alone and PHY-MIX (1:1 w/w)
[30] = Table 28, IFX-031, antibiotics alone and PHY-MIX (1:1 w/w)
[31] = Table 29, [R6W4] (IFX-318), antibiotics alone and PHY-MIX (1:1 w/w)
[32] = Table 30, [R5W4K] (IFX-315), antibiotics alone and PHY-MIX (1:1 w/w)
[33] = Table 31, [R5W4] (IFX-301), antibiotics alone and PHY-MIX (1:1 w/w)

NC[C@H]1O[C@H](O[C@H]2[C@H](O)[C@@H](O[C@H]3O[C@H](CO)[C@@H](O)[C@H](N)[C@H]3O)[C@H](N)C[C@@H]2N)[C@H](O)[C@@H](O)[C@@H]1O [Kanamycin] gave an MIC [1] of 64 µg/mL, an MIC [2, 18] of 32 µg/mL (≈ 66 µM) and an MIC [2, 19] of 32 µg/mL (≈ 66 µM). The MIC [2, 20] was 32 µg/mL (≈ 66 µM), the MIC [2, 21] was 32 µg/mL (≈ 66 µM) and the MIC of antibiotic [3] was 32 µg/mL. It also gave an MIC of antibiotic ([3]; Table 25) of 32 µg/mL, an MIC of antibiotic ([3]; Table 26) of 32 µg/mL and an MIC [4, 22] greater than 64 µg/mL. It also gave an MIC [4, 23] greater than 64 µg/mL, an MIC [4, 24] greater than 64 µg/mL and an MIC [4, 25] greater than 64 µg/mL. The MIC of antibiotic [5] was 64 µg/mL, the MIC of antibiotics [5] was 64 µg/mL and the MIC ([6]; read-out: MRSA (ATCC BAA-1556) MIC, Table 28, IFX-031, antibiotics alone and PHY-MIX (1:1 w/w)) was greater than 64 µg/mL. For the same molecule, the MIC ([6]; read-out: MRSA (ATCC BAA-1556) MIC, Table 29, [R6W4] (IFX-318), antibiotics alone and PHY-MIX (1:1 w/w)) was greater than 64 µg/mL, the MIC ([6]; read-out: MRSA (ATCC BAA-1556) MIC, Table 30, [R5W4K] (IFX-315), antibiotics alone and PHY-MIX (1:1 w/w)) was greater than 64 µg/mL and the MIC ([6]; read-out: MRSA (ATCC BAA-1556) MIC, Table 31, [R5W4] (IFX-301), antibiotics alone and PHY-MIX (1:1 w/w)) was greater than 64 µg/mL. It also gave an MIC [7, 26] of 64 µg/mL (≈ 132 µM), an MIC [7, 27] of 64 µg/mL (≈ 132 µM) and an MIC [7, 28] of 64 µg/mL (≈ 132 µM). For the same molecule, the MIC [7, 29] was 64 µg/mL (≈ 132 µM) and the MIC ([8]; Table 25) was 256 µg/mL.
C[C@H]1COc2c(N3CCN(C)CC3)c(F)cc3c(=O)c(C(=O)O)cn1c23 [Levofloxacin] gave an MIC [1] of 64 µg/mL, an MIC [2, 18] of 16 µg/mL (≈ 44.3 µM) and an MIC [2, 19] of 64 µg/mL (≈ 177 µM). It also gave an MIC [2, 20] of 64 µg/mL (≈ 177 µM), an MIC [2, 21] of 64 µg/mL (≈ 177 µM) and an MIC of antibiotic [3] of 64 µg/mL. For the same molecule, the MIC of antibiotic ([3]; Table 25) was 64 µg/mL, the MIC of antibiotic ([3]; Table 26) was 64 µg/mL and the MIC [4, 22] was 1 µg/mL (≈ 2.77 µM). The MIC [4, 23] was 1 µg/mL (≈ 2.77 µM), the MIC [4, 24] was 1 µg/mL (≈ 2.77 µM) and the MIC [4, 25] was 1 µg/mL (≈ 2.77 µM). For the same molecule, the MIC of antibiotic [5] was 64 µg/mL, the MIC [7, 26] was 32 µg/mL (≈ 88.6 µM) and the MIC [7, 27] was 64 µg/mL (≈ 177 µM). The MIC [7, 28] was 64 µg/mL (≈ 177 µM), the MIC [7, 29] was 64 µg/mL (≈ 177 µM) and the MIC ([8]; Table 25) was 1 µg/mL. It also gave an MIC of antibiotic ([8]; Table 26) of 1 µg/mL.
In the case of N=C(N)NCCC[C@@H]1NC(=O)[C@H](CCCNC(=N)N)NC(=O)[C@H](CCCNC(=N)N)NC(=O)[C@H](CCCNC(=N)N)NC(=O)[C@H](Cc2c[nH]c3ccccc23)NC(=O)[C@H](Cc2c[nH]c3ccccc23)NC(=O)[C@H](Cc2c[nH]c3ccccc23)NC(=O)[C@H](Cc2c[nH]c3ccccc23)NC(=O)[C@H](CCCNC(=N)N)NC(=O)[C@H](CCCNC(=N)N)NC1=O [[R6W4] IFX-301] (cyclo(RRRRRRWWWW)), the MIC ([9]; ATCC 10145) is reported as 32 µg/mL (≈ 19 µM), the MIC (PSA) is reported as 16 µg/mL (≈ 9.51 µM) and the MIC (E. coli) is reported as 32 µg/mL (≈ 19 µM). It also gave an MIC (KPC) of 64 µg/mL (≈ 38.1 µM).
Polymyxin was tested, and the MIC ([9]; Table 35, Pseudomonas aeruginosa (ATCC 10145)) was 2 µg/mL, the MIC ([9]; Table 36, Pseudomonas aeruginosa (ATCC 10145)) was 2 µg/mL and the MIC of antibiotic [3] was 2 µg/mL. For the same molecule, the MIC of antibiotic ([3]; Table 25) was 2 µg/mL, the MIC of antibiotic ([3]; Table 26) was 2 µg/mL and the “Polymyxin MIC” value ([3]; Table 27) was 2 µg/mL. It also gave an MIC of antibiotic [5] of 1 µg/mL, an MIC of antibiotic ([5]; Table 25) of 1 µg/mL and an MIC of antibiotics [5] of 1 µg/mL. The “Polymyxin MIC” value ([5]; Table 27) was 0.5 µg/mL, the MIC ([10]; Table 35) was 2 µg/mL and the MIC ([10]; Table 36) was 2 µg/mL. For the same molecule, the “Pseudomonas aeruginosa (ATCC 27883) MIC” value [11, 30] was 1 µg/mL, the “Pseudomonas aeruginosa (ATCC 27883) MIC” value [11, 31] was 1 µg/mL and the “Pseudomonas aeruginosa (ATCC 27883) MIC” value [11, 32] was 1 µg/mL. The “Pseudomonas aeruginosa (ATCC 27883) MIC” value [11, 33] was 1 µg/mL, the “MRSA (ATCC BAA-1556) MIC” value [12, 30] was 64 µg/mL and the “MRSA (ATCC BAA-1556) MIC” value [12, 31] was 64 µg/mL. The “MRSA (ATCC BAA-1556) MIC” value [12, 32] was 64 µg/mL, the “MRSA (ATCC BAA-1556) MIC” value [12, 33] was 64 µg/mL and the MIC ([13]; Table 35) was 1 µg/mL. It also gave an MIC ([13]; Table 36) of 1 µg/mL, an MIC ([14]; Table 35) of 1 µg/mL and an MIC ([14]; Table 36) of 1 µg/mL. The “Escherichia coli (ATCC 25922) MIC” value [15, 30] was 2 µg/mL, the “Escherichia coli (ATCC 25922) MIC” value [15, 31] was 2 µg/mL and the “Escherichia coli (ATCC 25922) MIC” value [15, 32] was 2 µg/mL. For the same molecule, the “Escherichia coli (ATCC 25922) MIC” value [15, 33] was 2 µg/mL, the MIC (PSA; Table 35, P. aeruginosa ATCC 27883) was 1 µg/mL and the MIC (PSA; Table 36, P. aeruginosa ATCC 27883) was 1 µg/mL. For the same molecule, the MIC (E. coli; Table 35, E. coli ATCC 25922) was 2 µg/mL, the MIC (E. coli; Table 36, E. coli ATCC 25922) was 2 µg/mL and the MIC (KPC; Table 35, Klebsiella pneumoniae (ATCC BAA-1705)) was 0.5 µg/mL. For the same molecule, the MIC (KPC; Table 36, Klebsiella pneumoniae (ATCC BAA-1705)) was 0.5 µg/mL, the MIC ([16]; Table 35) was 1 µg/mL and the MIC ([16]; Table 36) was 1 µg/mL. The MIC of antibiotic ([8]; Table 25) was 1 µg/mL, the MIC of antibiotic ([8]; Table 26) was 1 µg/mL and the antibiotic MIC ([8]; Table 27) was 1 µg/mL. For the same molecule, the “Klebsiella pneumoniae (ATCC BAA-1705) MIC” value (from here on “Klebsiella pneumoniae”) [17, 30] was 1 µg/mL, the “Klebsiella pneumoniae” value [17, 31] was 1 µg/mL and the “Klebsiella pneumoniae” value [17, 32] was 1 µg/mL. For the same molecule, the “Klebsiella pneumoniae” value [17, 33] was 1 µg/mL.
